US8629328B2 (Monsanto Technology LLC, priority 2006, dated 2014)
Read-outs that look alike come from different tables or passages of the source.

Key:
MARESTAIL (CA) Resistant = assay: Control of marestail by dicamba or glyphosate, treated at rosette leaf stage; assay type: in vivo, Conyza canadensis; details: dicamba formulation 280 g/ha
Excerpt: (§1) Marestail is one of the major weeds in a crop field. Marestail is effectively controlled by glyphosate, but the development of methods for controlling this common weed with other herbicides is important to minimize opportunities for herbicide tolerance to develop.

MARESTAIL (KY) Resistant = assay: as above; assay type: in vivo, Conyza canadensis; details: dicamba formulation 280 g/ha
Excerpt: as §1

[1] = tested on: corn inbreds 01CSI6 and LH244; details: 0.5 lb/a at V3 followed by 1 lb/a at V8
Excerpt: (§2) Transgenic corn plants were produced by the methods known in the art such as WO9506722 and US patent application 20040244075. […] Six events from each of the six constructs were used. […] The entire plot was fertilized uniformly to obtain an agronomically acceptable crop. A soil insecticide such as Force® 3G (Syngenta Crop Protection, Greensboro, N.C., USA) at 5 oz. per 1000 ft. of row for control of corn rootworm was applied at planting time. If black cutworm infestation was observed, POUNCE® 3.2EC at 4 to 8 oz. per acre rate (FMC Corporation, Philadelphia, Pa.) was used. In addition, an insecticide spray program was used to control all above ground lepidopteran pests including European corn borer, corn earworm, and fall armyworm. POUNCE® 3.2EC at 4 to 8 oz. per acre was applied every 3 weeks to control lepidopteran pests; about 4 applications were made. The plot was kept weed free with a pre-emergence application of a herbicide such as Harness® Xtra 5.6 L (Monsanto, St. Louis, Mo.) and Degree Xtra® (Monsanto, St. Louis, Mo.).
(§3) Brace root injury was evaluated visually by counting the number of plants in a row showing an “atypical” morphology of having the brace roots fused as compared to a typical morphology of “finger-like” structure.

[2] = tested on: transgenic corn plants transformed with DNA constructs carrying DMO; details: for Percentage brace root injury: 0.5 lb/a at V3 followed by 1 lb/a at V8
Excerpt: This expression element contains first intron and flanking UTR exon sequences from the rice actin 1 gene and includes 12 nt of exon 1 at the 5′ end and 7 nt of exon 2 at the 3′ end), and a 3′UTR (e.g. TaHsp17). Nucleotide sequences/an or patent references for various expression elements are disclosed in co-pending application U.S. Ser. No. 60/891,675.
as §2, §3

Structure (SMILES): COc1c(Cl)ccc(Cl)c1C(=O)O [dicamba, 3,6-dichloro-o-anisic acid]
- % Injury (21 DAT) (MARESTAIL (CA) Resistant): about 83%
- % Injury (21 DAT) (MARESTAIL (KY) Resistant): about 91%
- Percentage brace root injury ([1]; 01CSI6, susceptible inbred to dicamba): 95.4%
- Percentage brace root injury ([1]; LH244, resistant inbred to dicamba): 93.8%
- level of brace root injury ([2]; constructs coding for a DMO linked to a CTP (pMON73716, pMON73700, pMON73715, pMON73703)): lower level of brace root injury
- level of brace root injury ([2]; constructs coding for a DMO without CTP (pMON73699, pMON73704)): higher level of brace root injury
- Percentage brace root injury ([2]; pMON73699 (PC1SV/I-OsAct1/DMO-Wmc/TaHsp17)): 93.2%
- Percentage brace root injury ([2]; pMON73700 (PC1SV/I-OsAct1/CTP1/DMO-Wmc/TaHsp17)): 74.4%
- Percentage brace root injury ([2]; pMON73703 (e35S/I-OsAct1/CTP1/DMO-Wmc/TaHsp17)): 68.8%
- Percentage brace root injury ([2]; pMON73704 (e35S/I-OsAct1/DMO-Wmc/TaHsp17)): 91.3%
- Percentage brace root injury ([2]; pMON73715 (PC1SV/I-OsAct1/CTP2syn/DMO-Wmc/TaHsp17)): 68.2%
- Percentage brace root injury ([2]; pMON73716 (PC1SV/I-OsAct1/TaWaxy/DMO-Wmc/TaHsp17)): 78.8%
